Like-named read-outs stand apart in the source and are kept apart here.
What was measured:
JAR xenografts = assay: Tumor regression and survival of nude mice bearing large JAR xenografts, intratumoral injection; conditions: JAR xenografts (average 2,000 mg)
Protocol: Administration was by direct injection into the tupors at the designated daily dose, 5 doses/week. Anti-MDM2 oligonucleotide: AS5-2H (5 mg/kg/day, 5 injections); anti-MDM2 oligonucleotide (5 mg/kg)+HCPT (3 mg/kg); control (saline); HCPT: 3 mg/kg/day.
The tumor cell lines, SJSA and JAR, were cultured under the same conditions as in in vitro studies (Chen et al., PNAS 1998, supra). Human cancer xenograft models were established using the methods reported previously (Cai et al., Intl. J. Oncol. 10:953-960, 1997; and Zhang et al., Intl. J. Oncol. 10:1147-1156, 1997). Female nude mice (five week old) were used in the study. Cultured SJSA and JAR cells were harvested from the monolayer cultures, washed twice with DMEMF-12 HAM medium, resuspended in DMEM, and injected s.c. (20×10^6 cells, total volume 0.2 ml) into the left inguinal area of the mice. The animals were monitored by general clinical observation, body weight, and tumor growth. […] Animals with JAR cells were treated when the tumor size reached 2,000 mg. The animals bearing human cancer carcinoma xenografts were randomly divided into treatment groups and a control group (6-10 mice/group). Oligonucleotides dissolved in physiological saline (0.9% NaCl) were administered by ip injection at various daily doses, 5 consecutive days per week. The control group received physiological saline only. […]

[1] = mice bearing DLD-1 xenografts
DLD-1 cells = assay: DLD-1 cell growth by trypan blue viability staining; format: cell-based, human; conditions: 72-hr treatment, Lipofectin, read-out: IC50, inhibition of tumor cell growth
Excerpt: (§1) Chemicals and Reagents. Cell culture media and phosphate-buffered saline (PBS) were obtained from Sigma Chemical Co. (St. Louis, Mo.). Fetal bovine serum (FBS), antibodies against p53 and p21, Lipofectin, trypsin, penicillin-streptomycin, and trypan blue stain were purchased from GIBCO-BRL (Grand Island, N.Y.). The anti-human-MDM2 monoclonal antibody (Chen L. et al., Proc Natl Acad Sci USA, 95: 195-200, 1998; Chen L. et al., Mol. Med. 5: 21-34, 1999) was kindly provided by J. Chen (Moffitt Cancer Center, Tampa, Fla.). Chemotherapeutic agents adriamycin and 5-fluorouracil (5-FU) were obtained from Sigma. […] The MDM2, p53 and p21 levels in cultured cells were analyzed by using the methods described previously (earlier (Chen L. et al., Proc Natl Acad Sci USA, 95: 195-200, 1998; Chen L. et al., Mol. Med. 5: 21-34, 1999; Wang H. et al., Int J. Oncol. 15: 653-660, 1999). In brief, cell lysate containing identical amounts of total protein were fractionated by SDS-PAGE and transferred to Bio-Rad Trans-Blot nitrocellulose membranes (Bio-Rad Laboratories, Hercules, Calif., USA). The nitrocellulose membrane was then incubated with blocking buffer (PBS containing 0.1% Tween 20 and 5% non-fat milk) for 1 hr at room temperature and washed with the washing buffer (PBS containing 0. […]

[2] = tested on: human colon cancer LS174T xenografts; assay: Tumor growth in nude mice bearing LS174T xenografts
MDM2 = conditions: SJSA and JAR cells; cited from earlier work
[3] = tested on: MDM2, p53 and p21 protein levels in DLD-1 cells; assay: Western blot of MDM2, p53 and p21 in DLD-1 cells; format: cell-based, human; conditions: for inhibitory effect on MDM2 expression: Lipofectin
Excerpt: Chemicals and Reagents. Cell culture media and phosphate-buffered saline (PBS) were obtained from Sigma Chemical Co. (St. Louis, Mo.). Fetal bovine serum (FBS), antibodies against p53 and p21, Lipofectin, trypsin, penicillin-streptomycin, and trypan blue stain were purchased from GIBCO-BRL (Grand Island, N.Y.). The anti-human-MDM2 monoclonal antibody (Chen L. et al., Proc Natl Acad Sci USA, 95: 195-200, 1998; Chen L. et al., Mol. Med. 5: 21-34, 1999) was kindly provided by J. Chen (Moffitt Cancer Center, Tampa, Fla.). Chemotherapeutic agents adriamycin and 5-fluorouracil (5-FU) were obtained from Sigma. Natural product topoisomerase I inhibitor 10-hydroxycamptothecin (HCPT) was obtained from the Midwest Co. (Beijing, China) with the purity of the drug being greater than 98% (Zhang R. et al., Cancer Chemother Pharm 41: 257-267, 1998). Cell Culture. The tumor cell lines, LS174T and DLD-1 were obtained from the American Type Culture Collection (Rockville, Md.) and cultured according to their instructions. LS 174T cells were cultured in MEM with 0.1 mM nonessential amino acids and Earle's balanced salt solution containing 10% FBS and DLD-1 cells in RPMI 1640 medium containing 10% FBS. All media included 1% penicillin/streptomycin. […] Cells were incubated with Oligos AS or ASM at various concentrations for 72 hr, in the presence of Lipofectin (7 μg/ml). […] Western Blot Analysis. The MDM2, p53 and p21 levels in cultured cells were analyzed by using the methods described previously (earlier (Chen L. et al., Proc Natl Acad Sci USA, 95: 195-200, 1998; Chen L. et al., Mol. Med. 5: 21-34, 1999; Wang H. et al., Int J. Oncol. 15: 653-660, 1999). In brief, cell lysate containing identical amounts of total protein were fractionated by SDS-PAGE and transferred to Bio-Rad Trans-Blot nitrocellulose membranes (Bio-Rad Laboratories, Hercules, Calif., USA). The nitrocellulose membrane was then incubated with blocking buffer (PBS containing 0.1% Tween 20 and 5% non-fat milk) for 1 hr at room temperature and washed with the washing buffer (PBS containing 0. 1% Tween 20) for 5 min twice. The membrane was incubated with primary (anti-MDM2, anti-p53, or anti-p21) antibody overnight at 4° C. or for 1 hr at room temperature with gentle shaking. The membrane was washed with the washing buffer for 15 min and then twice for 5 min, and then incubated with 1:5000 diluted goat anti-mouse IgG-horse radish peroxidase conjugated antibody (Bio-Rad, Hercules, Calif.) for 1 hr at room temperature. After washing as described above the protein of interest was detected by ECL reagents from Amersham (Arlington Height, Ill.). Results. LS174T Model. In vitro inhibition of MDM2 expression by Oligo AS was shown in a sequence-specific, increasing dose-dependent manner (FIG. 19). […] Control oligonucleotide, Oligo ASM had no effect on MDM2, p53 or p21 protein levels at 500 nM, the highest concentration tested in the study.
Following in vitro combination treatment of Oligos and chemotherapeutic agents HCPT, adriamycin, and 5-FU, the protein levels of MDM2, p53 and p21 were determined in DLD-1 cells. Cells were incubated with 200 nM Oligo in the presence of Lipofectin for 24 hr, followed by addition of various concentrations of chemotherapeutic agents and incubation for an additional 24 hr.

[4] = tested on: MDM2, p53 and p21 protein levels in LS174T cells; assay: Western blot of MDM2, p53 and p21 in LS174T cells; format: cell-based, human; conditions: 24 hr, Lipofectin
LS174T cells = assay: LS174T cell growth by trypan blue viability staining; format: cell-based, human; conditions: 72 hr, Lipofectin 7 μg/ml, read-out: IC50, inhibition of tumor cell growth
Excerpt: as §1

[5] = tested on: human colon cancer DLD-1 xenografts; assay: Tumor growth in nude mice bearing DLD-1 xenografts; format: in vivo
SJSA xenografts = assay: Tumor growth in nude mice bearing SJSA xenografts; format: in vivo; conditions: SJSA xenografts (average 150 mg), ip, 5 doses/week
Protocol: 51:173-182, 1996). […] The control group received physiological saline only.
Tumor growth was monitored using the methods previously reported (74,75). Tumor weight (g) was calculated by the formula, ½·a·b^2, where “a” is the long diameter (cm) and “b” is the short diameter (cm) of the tumor. At the end of the experiment, tumors were removed, weighed, and then fixed for pathology evaluation.

[6] = day 3, oligo 20, HCPT 3, 5-FU 10 mg/kg/day
[7] = day 6, oligo 20, HCPT 3, 5-FU 10 mg/kg/day
[8] = day 9, oligo 20, HCPT 3, 5-FU 10 mg/kg/day
[9] = day 12, oligo 20, HCPT 3, 5-FU 10 mg/kg/day
[10] = day 15, oligo 20, HCPT 3, 5-FU 10 mg/kg/day

## Oligo AS: 20-mer mixed-backbone phosphorothioate oligonucleotide with 2′-O-methyl ends, 5′UGACACCTGTTCTCACUCAC-3′; SEQ ID NO:47 (mixed phosphorothioate backbone with 2'-O-methyl ends, pattern not given here)
JAR xenografts; direct injection
  tumor regression: tumor regression
JAR xenografts; direct injection into tumors, 5 mg/kg/day
  animals surviving up to 4 weeks: 20%
[1]; day 3
  Survival Rates of Animals: 100%
[1]; day 6
  Survival Rates of Animals: 100%
[1]; day 9
  Survival Rates of Animals: 100%
[1]; day 12
  Survival Rates of Animals: 100%
[1]; day 15
  Survival Rates of Animals: 100%
[1]; day 18
  Survival Rates of Animals: 100%
[1]; day 21
  Survival Rates of Animals: 100%
DLD-1 cells
  IC50: 140 nM
[2]
  xenograft pathology (tumor histology): patches of collagenous connective tissues replacing tumor and necropurulent, ulcerative changes
[2]; daily ip dose 20 mg/kg
  effect on in vivo tumor growth: significant inhibitory effect
[2]; day 3
  Ratio (%) of % T:C with oligo to % T:C without oligo ([2]/[1] or [3]/[1]): 51%
[2]; [6]
  Growth ratio % T:C (mean tumor mass of treated group vs saline control): 50.9%
[2]; day 6
  Ratio (%) of % T:C with oligo to % T:C without oligo ([2]/[1] or [3]/[1]): 44%
[2]; [7]
  Growth ratio % T:C (mean tumor mass of treated group vs saline control): 44.1%
[2]; day 9
  Ratio (%) of % T:C with oligo to % T:C without oligo ([2]/[1] or [3]/[1]): 30%
[2]; [8]
  Growth ratio % T:C (mean tumor mass of treated group vs saline control): 29.9%
[2]; day 12
  Ratio (%) of % T:C with oligo to % T:C without oligo ([2]/[1] or [3]/[1]): 34%
[2]; [9]
  Growth ratio % T:C (mean tumor mass of treated group vs saline control): 34.3%
[2]; day 15
  Ratio (%) of % T:C with oligo to % T:C without oligo ([2]/[1] or [3]/[1]): 45%
[2]; [10]
  Growth ratio % T:C (mean tumor mass of treated group vs saline control): 45.2%
[2]; day 18
  Ratio (%) of % T:C with oligo to % T:C without oligo ([2]/[1] or [3]/[1]): 37%
[2]; day 18 (end of experiment), oligo 20, HCPT 3, 5-FU 10 mg/kg/day
  Growth ratio % T:C (mean tumor mass of treated group vs saline control): 37.3%
MDM2
  MDM2 expression: specifically inhibits MDM2 expression
[3]
  protein levels of the mutant p53: No significant changes
[3]; 200 nM Oligo 24 hr, then 5-FU 24 hr
  MDM2, p53 and p21 protein levels, oligo pre-treatment then 5-FU: MDM2 expression was inhibited, and p21 slightly induced
[3]; 200 nM Oligo 24 hr, then HCPT 24 hr
  MDM2 and p21 protein levels, oligo pre-treatment then HCPT: MDM2 expression was inhibited, resulting in significant elevated p21 levels
[3]; 200 nM Oligo 24 hr, then adriamycin 24 hr
  MDM2 and p21 protein levels, oligo pre-treatment then adriamycin: MDM2 expression was inhibited, resulting in significant elevated p21 levels
[3]; 200 nM, 24 hr
  inhibitory effect on MDM2 expression: > 95%
[3]; 100 nm or higher
  p21 levels: elevated
[3]; 500 and 1000 nM
  inhibitory effect on MDM2 expression: approximately 80%
[4]; 500 nM
  inhibition of MDM2 expression: greater than 90%
[4]; up to 500 nM
  effect on MDM2, p53 and p21 protein levels: p53 and p21 levels elevated accordingly
LS174T cells
  IC50: 323 nM
[5]
  xenograft pathology (tumor histology): histologically similar to control tumors except for modest increases in connective tissue with necrotic changes in tumor tissues
[5]; 1 mg/kg/day
  effect on in vivo tumor growth: minimal effects
[5]; daily ip doses 1, 10, 20 mg/kg
  effect on in vivo tumor growth: dose-dependent response
[5]; day 3
  Ratio (%) of % T:C with oligo to % T:C without oligo ([2]/[1] or [3]/[1]): 77%
[5]; [6]
  Growth ratio % T:C: 77.3%
[5]; day 6
  Ratio (%) of % T:C with oligo to % T:C without oligo ([2]/[1] or [3]/[1]): 72%
[5]; [7]
  Growth ratio % T:C: 72.0%
[5]; day 9
  Ratio (%) of % T:C with oligo to % T:C without oligo ([2]/[1] or [3]/[1]): 59%
[5]; [8]
  Growth ratio % T:C: 59.2%
[5]; day 12
  Ratio (%) of % T:C with oligo to % T:C without oligo ([2]/[1] or [3]/[1]): 41%
[5]; [9]
  Growth ratio % T:C: 41.2%
[5]; day 15
  Ratio (%) of % T:C with oligo to % T:C without oligo ([2]/[1] or [3]/[1]): 44%
[5]; [10]
  Growth ratio % T:C: 44.4%
[5]; day 18
  Ratio (%) of % T:C with oligo to % T:C without oligo ([2]/[1] or [3]/[1]): 47%
[5]; day 18, oligo 20, HCPT 3, 5-FU 10 mg/kg/day
  Growth ratio % T:C: 46.7%
[5]; day 21
  Ratio (%) of % T:C with oligo to % T:C without oligo ([2]/[1] or [3]/[1]): 37%
[5]; day 21 (end of experiment), oligo 20, HCPT 3, 5-FU 10 mg/kg/day
  Growth ratio % T:C: 36.8%
SJSA xenografts
  effect on tumor growth: dose-dependent effect
